# Experiment: Plasma exposures following IV infusion alone or in combination to Sprague-Dawley rats
# Conditions: for concentration at 0.25 h: 0.250 hrs; for concentration at 0.5 h: 0.500 hrs
# Method: The pharmacokinetics of EFdA and prodrug formula 4-A, as well as lenacapavir were studied in rats after IV infusion administration alone or in combination at a dose of 1.0 mg/kg each.
# Formulations: The prodrugs and lenacapavir were formulated alone or in combination as solutions at 1.0 mg/mL each in 20% […], 10% Solutol aqueous solution within 0.5 hour prior to dose.
# Dose Administration and Sample Collection: The in-life phase of this study was conducted at the WuXi Apptec (WuXi) at Shanghai, China in accordance with the WuXi Institutional Animal Care and Use Committee (IACUC) standard animal procedures along with the IACUC guidelines that are in compliance with the Animal Welfare Act, the Guide for the Care and Use of Laboratory Animals. and was approved by the IACUA Committee. Male Sprague-Dawley rats (0.262+/−0.019 kg) were used for the studies. Each drug was administered as a single dose by 30-min IV infusion (1 ml/kg) alone or in combination. Plasma samples were collected at 0 (pre-dose), 5, 10, 15 and 30 min, 1, 2, 4, 7, 12 and 24 h post-dose. Blood (approximately 0.1 mL) was processed immediately for plasma by centrifugation at 3,200 g at 4° C. for 10 min within half an hour of collection. Plasma samples were frozen and maintained at −70° C. until analyzed. To stabilize the prodrug at the sample collection and subsequent analysis, the following stabilizing reagents were added to the blood collection K2EDTA tubes on wet ice prior to sample collection: for each 100 mL of blood, 10 mL of premade inhibitor cocktail consists of 600 mM Citric Acid, 400 mM PMSF, 400 mM NaF, and 400 mM Dichlorvos.
# Determination of EFdA and Prodrugs in plasma: Briefly, plasma (20 μL) was mixed with 100 l acetonitrile to precipitate protein. Consistent with sample collection procedure, the same cocktail protocol was also added to stabilize the prodrug in the standard and QC samples.
# Bioanalysis: A Sciex API-6500 Plus triplequadrupole mass spectrometer coupled with a Waters Acquity UPLC system (Framingham, MA 01701) was used for quantitative analysis of plasma samples. The column was a Waters HSS T3 column (2.1×50 mm, 1.8 micrometer). The mobile phases used were: A, 0.1% formic acid in water; B, 0.1% formic acid in acetonitrile. For the analysis of EFdA and prodrugs in plasma, the flow rate was 0.6 mL/min with a total run time of 2.0 min. […] Detection of the prodrug and EFdA were achieved using positive ion electrospray mass spectroscopic mode using unit resolution mode. Multiple reaction monitoring (MRM) modes were used to quantify both prodrug and EFdA, e.g. the MRM transition for EFdA was 294.0-154.2 Da, and the transition for prodrug 4-A was 449.3-164.9 Da. For the analysis of lenacapavir in plasma, the flow rate was 0.7 mL/min with a total run time of 1.5 min. The HPLC gradient was initiated at 95% A/5% B for 0.50 min, followed by linear gradient increase to […] over the next 0.2 min; the gradient was subsequently maintained at 100% of mobile B over the next 0.7 min before ramping down to 95% mobile phase A within the following 0.1 min. Detection of lenacapavir was achieved using positive ion electrospray mass spectroscopic mode using unit resolution mode. Multiple reaction monitoring (MRM) modes were used to quantify lenacapavir, e.g. the MRM transition for lenacapavir was 968.1-869.4 Da. Peak areas were integrated by the Sciex program Analyst®, version 1.6.3, operating on a Windows 7 computer where concentrations were determined by a weighted (1/x2) linear regression of peak area ratios (peak area of EFdA/peak area of corresponding IS) versus the nominal concentrations of the plasma calibration standards. Calculations were performed on unrounded numbers. Overall, Analyst® determined the precision and accuracy for the calibration standards and QC samples.
# [1] = male, Sprague-Dawley, rat, in vivo, 1 mg/kg, Lenacapavir Concentrations in Rat Plasma When Dosed Alone, Lenacapavir IV infusion 1.0 mg/kg alone, individual animals
# [2] = male, Sprague-Dawley, rat, in vivo, 1 mg/kg, Lenacapavir Concentrations in Rat Plasma When Dosed Alone, Lenacapavir IV infusion 1.0 mg/kg alone, Mean
# [3] = male, Sprague-Dawley, rat, in vivo, Lenacapavir Concentrations in Rat Plasma When Dosed with Prodrug formula 4-A, Lenacapavir IV infusion 1.0 mg/kg with Prodrug formula 4-A, Mean
# [4] = male, Sprague-Dawley, rat, in vivo, iv, 1 mg/kg
structure (smiles),measurement,setting,value
"CC(C)(C#Cc1ccc(-c2ccc(Cl)c3c(NS(C)(=O)=O)nn(CC(F)(F)F)c23)c([C@H](Cc2cc(F)cc(F)c2)NC(=O)Cn2nc(C(F)(F)F)c3c2C(F)(F)[C@@H]2C[C@H]32)n1)S(C)(=O)=O [Lenacapavir, reference compound]",concentration at 0.25 h,[1],796 ng/mL
same,concentration at 0.5 h,[2],789 ng/mL
same,concentration at 0.5 h,[1],980 ng/mL
same,concentration at 1 h,[2],222 ng/mL
same,concentration at 1 h,[1],261 ng/mL
same,concentration at 2 h,[2],150 ng/mL
same,concentration at 2 h,[1],181 ng/mL
same,concentration at 4 h,[2],156 ng/mL
same,concentration at 4 h,[1],171 ng/mL
same,concentration at 7 h,[2],138 ng/mL
same,concentration at 12 h,[2],117 ng/mL
same,concentration at 12 h,[1],145 ng/mL
same,concentration at 24 h,[2],136 ng/mL
same,concentration at 24 h,[1],141 ng/mL
same,concentration at 72 h,[2],69.6 ng/mL
same,concentration at 0.083 h,"male, Sprague-Dawley, rat, in vivo, Lenacapavir Concentrations in Rat Plasma When Dosed with Prodrug formula 4-A, Lenacapavir IV infusion 1.0 mg/kg with Prodrug formula 4-A, 0.0830 hrs, Mean",413 ng/mL
same,concentration at 0.167 h,"male, Sprague-Dawley, rat, in vivo, Lenacapavir Concentrations in Rat Plasma When Dosed with Prodrug formula 4-A, Lenacapavir IV infusion 1.0 mg/kg with Prodrug formula 4-A, 0.167 hrs, Mean",507 ng/mL
same,concentration at 0.25 h,[3],590 ng/mL
same,concentration at 0.5 h,[3],645 ng/mL
same,concentration at 1 h,[3],162 ng/mL
same,concentration at 2 h,[3],127 ng/mL
same,concentration at 4 h,[3],93.5 ng/mL
same,concentration at 7 h,[3],93 ng/mL
same,concentration at 12 h,[3],128 ng/mL
same,concentration at 24 h,[3],133 ng/mL
same,concentration at 72 h,[3],83.3 ng/mL
same,AUC,[4],7980 ng·h/mL
same,Cmax,[4],903 ng/mL
same,"Pharmacokinetic profile of lenacapavir on co-administration of prodrugs, e.g. formula 4-A","rats, IV infusion",not affected

# — patent US12257264B2, “Combination therapy for HIV with adenosine derivative and capsid inhibitors” (Brii Biosciences, Inc., priority 2021, dated 2025)
